# Data published in PubChem BioAssay AID1963837 (Molecular Pharmacology Branch, DTP, NCI, 2024).
# Several values for one entry are separate records, joined by “and”; a condition that tells them apart may be missing. Identical values can stand only once.
# Tested on: 843126-344-R-J1-PDC complex spheroid viability
# Assay: Anticancer human tumor 843126-344-R-J1-PDC patient-derived melanoma cell line growth inhibition [POLQ]
# Settings: compound 0.0316 µM; hits give low values
# Protocol: Multicellular complex tumor spheroid response to Polymerase (POL) inhibitors (novobiocin, ART-558, RP6685) in combination with a variety of drugs and investigational agents in selected tumor cell lines
# The POL inhibitors (novobiocin, ART-558, and RP6685) were evaluated both individually and in combination with standard of care and investigational anticancer small molecules within a complex spheroid model of solid tumors. . Complex spheroids include a stromal component modeled by human endothelial cells (HUVEC) and fibroblasts modeled by human mesenchymal stem cells (MSCs). The concentration ranges selected for each drug and investigational agent were based upon clinically achievable concentrations if the clinical Cmax of the agent was known.
# Compounds. The drugs and investigational agents: novobiocin (NSC847541), ART-558 (NSC835418), RP-6685 (NSC848927), peposertib (NSC802822), ceralasertib (NSC780249), elimusertib (NSC800525), camonsertib (NSC841442), AZD-1390 (NSC803789), olaparib (NSC753686), talazoparib (NSC767125), rucaparib (NSC756644), sotorasib (NSC818433), MRTX-1133 (NSC836407), SN-38 (NSC673596), topotecan (NSC609699), epotoside (NSC141540), doxorubicin (NSC123127), gemcitabine (NSC613327), 5-fluorouracil (NSC19893), paclitaxel (NSC125973), vemurafenib (NSC761431), MSA-2 (NSC828583), SN-011 (NSC837082), adavosertib (NSC754352), prexasertib (NSC758257), carboplatin (NSC241240) and oxaliplatin (NSC266046), were obtained from the National Cancer Institute (NCI) Developmental Therapeutics Program Chemical Repository (21). The FDA-approved anticancer drug set is available from the Developmental Therapeutics Program at https://dtp.cancer.gov/organization/dscb/obtaining/. […] The stock solutions were prepared in dimethyl sulfoxide (DMSO, Sigma-Aldrich, St. Louis, MO, cat. D2650), except for the platinum compounds which were prepared in saline (Quality Biological, Gaithersburg, MD, cat. 114-055-101), at 800-fold the tested concentration and stored at -70 degrees C prior to their use. All drugs and investigational agents were tested over a range starting from a high concentration at or near the clinical Cmax and decreasing in half-log increments. If the clinical Cmax for an agent had not been determined, the highest concentration tested was 10 microM, except for SN-38, which was tested at a high concentration of 1 microM.
# Cell Culture. All cells were maintained in an incubator at 37 degrees C and 5% CO2 with 95% humidity. The PDC lines were cultured according to standard operating procedures established by the NCI PDMR (https://pdmr.cancer.gov). Table 3 of the manuscript, lists the cell lines along with the number of the three cell types plated to form the mct-spheroids and media for tumor cell growth. After thawing, all PDC lines, except 997537-175-T-J1-PDC and 415267-285-R-J2-PDC, were cultured in Matrigel-coated flasks prepared with a working solution of 1X Ham's F-12 nutrient mix, without supplementation (Thermo Fisher Scientific, cat. 11765054), 100 U/mL penicillin-streptomycin (Thermo Fisher Scientific, cat. 15140122), and 2.5% Matrigel (Corning Inc., Corning, NY, cat. 354248) for the first three passages. The two PDC lines 997537-175-T-J1-PDC and 415267-285-R-J2-PDC were cultured on uncoated flasks. The 857933-349-R-J2-PDC line was cultured in 6C/Colon 1B media containing advanced DMEM/F-12 (Thermo Fisher Scientific, cat. 12634028), 10 mM HEPES (Thermo Fisher Scientific, cat. 15630080), 1X GlutaMAX supplement (Thermo Fisher Scientific, cat. 35050061), 0.1 mg/mL primocin (InvivoGen, San Diego, CA, cat. ant-pm-2), 10% defined fetal bovine serum, heat inactivated (HyClone Laboratories Inc., Logan, UT, cat. SH30070.03HI), 50% L-WRN conditioned media (ATCC, cat. CRL-3276), 1.25 mM N-Acetyl-L-cysteine (Sigma-Aldrich, cat. A9165), 10 mM nicotinamide (Sigma-Aldrich, cat. N0636), 1X B-27 supplement (Thermo Fisher Scientific, cat. 17504044), 1X N-2 supplement (Thermo Fisher Scientific, cat. […]
# 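Note: spheroids exposed to drugs for seven days before readout.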
row,SMILES,"viability, T/C"
1,COc1cc2cc(C(=O)CCC(=O)O)sc2cc1OC,87.3% and 78.3% and 95.9%
2,CCc1cc2c(N3CCc4c(cc(Cn5ccnc5)cc4-c4cn(C)nc4C(F)(F)F)C3=O)ccnc2c(OC)n1,85.3% and 83.1% and 106%
3,COc1cc(C2c3cc4c(cc3C(OC3OC5COC(C)OC5C(O)C3O)C3COC(=O)C23)OCO4)cc(OC)c1O (stereo not given),82.2% and 114% and 91.2%
4,Nc1ccc(C#CCN(C(=O)Cc2ncc(C(F)(F)F)cc2C(F)(F)F)c2ccc(F)cc2)nn1,98.2% [middle of 13 runs]
5,C#Cc1c(F)ccc2cc(O)cc(-c3ncc4c(N5CC6CCC(C5)N6)nc(OCC56CCCN5CC(F)C6)nc4c3F)c12 (stereo not given),90.2% and 115% and 80.5%
6,O=C(Nc1ccc(O)c(NS(=O)(=O)c2ccc(F)cc2)c1)c1ccc(-c2ccccc2)cc1,105% and 76% and 99.6%
7,CC1COCCN1c1cc(-c2ccnn2C)c2ccnc(-c3ccn[nH]3)c2n1 (stereo not given),93.7% and 70.9% and 85.8%

# Same assay, conditions: compound 0.1 µM; hits give low values
row,SMILES,"viability, T/C"
1,COc1cc2cc(C(=O)CCC(=O)O)sc2cc1OC,84.1% and 94.8% and 93.8%
2,CCc1cc2c(N3CCc4c(cc(Cn5ccnc5)cc4-c4cn(C)nc4C(F)(F)F)C3=O)ccnc2c(OC)n1,78.4% and 81% and 75.8%
3,COc1cc(C2c3cc4c(cc3C(OC3OC5COC(C)OC5C(O)C3O)C3COC(=O)C23)OCO4)cc(OC)c1O (stereo not given),95.3% and 90.7% and 102%
4,Nc1ccc(C#CCN(C(=O)Cc2ncc(C(F)(F)F)cc2C(F)(F)F)c2ccc(F)cc2)nn1,95.1% [middle of 13 runs]
5,C#Cc1c(F)ccc2cc(O)cc(-c3ncc4c(N5CC6CCC(C5)N6)nc(OCC56CCCN5CC(F)C6)nc4c3F)c12 (stereo not given),116% and 88.3% and 91.5%
6,O=C(Nc1ccc(O)c(NS(=O)(=O)c2ccc(F)cc2)c1)c1ccc(-c2ccccc2)cc1,95.6% and 92.3% and 104%
7,CC1COCCN1c1cc(-c2ccnn2C)c2ccnc(-c3ccn[nH]3)c2n1 (stereo not given),87% and 64.9% and 70.9%

# Same assay, conditions: compound 0.316 µM; hits give low values
row,SMILES,"viability, T/C"
1,Cc1cccc(N(C)C(=O)C2C(O)CCN2c2nc(C)cc(C(F)(F)F)c2C#N)c1 (stereo not given),100% [middle of 12 runs]
2,COc1cc2cc(C(=O)CCC(=O)O)sc2cc1OC,94.1% and 97.4% and 110%
3,CCc1cc2c(N3CCc4c(cc(Cn5ccnc5)cc4-c4cn(C)nc4C(F)(F)F)C3=O)ccnc2c(OC)n1,84.9% and 88.6% and 90.4%
4,COc1cc(C2c3cc4c(cc3C(OC3OC5COC(C)OC5C(O)C3O)C3COC(=O)C23)OCO4)cc(OC)c1O (stereo not given),90% and 97.6% and 83.3%
5,Nc1ccc(C#CCN(C(=O)Cc2ncc(C(F)(F)F)cc2C(F)(F)F)c2ccc(F)cc2)nn1,97.8% [middle of 13 runs]
6,C#Cc1c(F)ccc2cc(O)cc(-c3ncc4c(N5CC6CCC(C5)N6)nc(OCC56CCCN5CC(F)C6)nc4c3F)c12 (stereo not given),96.1% and 97.6% and 95.8%
7,O=C(Nc1ccc(O)c(NS(=O)(=O)c2ccc(F)cc2)c1)c1ccc(-c2ccccc2)cc1,105% and 88.3% and 87.2%
8,CC1COCCN1c1cc(-c2ccnn2C)c2ccnc(-c3ccn[nH]3)c2n1 (stereo not given),85.9% and 57.1% and 61.9%

# Same assay, conditions: compound 1 µM; hits give low values
row,SMILES,"viability, T/C"
1,Cc1cccc(N(C)C(=O)C2C(O)CCN2c2nc(C)cc(C(F)(F)F)c2C#N)c1 (stereo not given),97.7% [middle of 12 runs]
2,COc1cc2cc(C(=O)CCC(=O)O)sc2cc1OC,89.5% and 93.5% and 88.7%
3,CCc1cc2c(N3CCc4c(cc(Cn5ccnc5)cc4-c4cn(C)nc4C(F)(F)F)C3=O)ccnc2c(OC)n1,76% and 83.2% and 91.5%
4,COc1cc(C2c3cc4c(cc3C(OC3OC5COC(C)OC5C(O)C3O)C3COC(=O)C23)OCO4)cc(OC)c1O (stereo not given),90.9% and 79% and 81.2%
5,Nc1ccc(C#CCN(C(=O)Cc2ncc(C(F)(F)F)cc2C(F)(F)F)c2ccc(F)cc2)nn1,92.4% [middle of 12 runs]
6,C#Cc1c(F)ccc2cc(O)cc(-c3ncc4c(N5CC6CCC(C5)N6)nc(OCC56CCCN5CC(F)C6)nc4c3F)c12 (stereo not given),78.2% and 100% and 82.2%
7,COC1C(OC(N)=O)C(O)C(Oc2ccc3c(O)c(NC(=O)c4ccc(O)c(CC=C(C)C)c4)c(=O)oc3c2C)OC1(C)C (stereo not given),92% [middle of 13 runs]
8,O=C(Nc1ccc(O)c(NS(=O)(=O)c2ccc(F)cc2)c1)c1ccc(-c2ccccc2)cc1,99.5% and 85.9% and 100%
9,CC1COCCN1c1cc(-c2ccnn2C)c2ccnc(-c3ccn[nH]3)c2n1 (stereo not given),44.4% and 47.7% and 48.8%

# Same assay, conditions: compound 3.16 µM; hits give low values
row,SMILES,"viability, T/C"
1,COc1cc2cc(C(=O)CCC(=O)O)sc2cc1OC,86.9% and 84.8% and 98.1%
2,CCc1cc2c(N3CCc4c(cc(Cn5ccnc5)cc4-c4cn(C)nc4C(F)(F)F)C3=O)ccnc2c(OC)n1,74.6% and 78.3% and 72.3%
3,COc1cc(C2c3cc4c(cc3C(OC3OC5COC(C)OC5C(O)C3O)C3COC(=O)C23)OCO4)cc(OC)c1O (stereo not given),58.2% and 68.9% and 66.3%
4,Nc1ccc(C#CCN(C(=O)Cc2ncc(C(F)(F)F)cc2C(F)(F)F)c2ccc(F)cc2)nn1,90.4% [middle of 13 runs]
5,C#Cc1c(F)ccc2cc(O)cc(-c3ncc4c(N5CC6CCC(C5)N6)nc(OCC56CCCN5CC(F)C6)nc4c3F)c12 (stereo not given),95.1% and 96.5% and 95.2%
6,O=C(Nc1ccc(O)c(NS(=O)(=O)c2ccc(F)cc2)c1)c1ccc(-c2ccccc2)cc1,87.3% and 85.3% and 95.2%
7,CC1COCCN1c1cc(-c2ccnn2C)c2ccnc(-c3ccn[nH]3)c2n1 (stereo not given),38.5% and 40.5% and 38.8%

# Same assay, conditions: compound 10 µM; hits give low values
row,SMILES,"viability, T/C"
1,Cc1cccc(N(C)C(=O)C2C(O)CCN2c2nc(C)cc(C(F)(F)F)c2C#N)c1 (stereo not given),95.7% [middle of 12 runs]
2,COc1cc2cc(C(=O)CCC(=O)O)sc2cc1OC,112% and 90.1% and 96.6%
3,CCc1cc2c(N3CCc4c(cc(Cn5ccnc5)cc4-c4cn(C)nc4C(F)(F)F)C3=O)ccnc2c(OC)n1,53.8% and 58.4% and 66.4%
4,COc1cc(C2c3cc4c(cc3C(OC3OC5COC(C)OC5C(O)C3O)C3COC(=O)C23)OCO4)cc(OC)c1O (stereo not given),50% and 52.2% and 41.9%
5,Nc1ccc(C#CCN(C(=O)Cc2ncc(C(F)(F)F)cc2C(F)(F)F)c2ccc(F)cc2)nn1,87.2% [middle of 13 runs]
6,C#Cc1c(F)ccc2cc(O)cc(-c3ncc4c(N5CC6CCC(C5)N6)nc(OCC56CCCN5CC(F)C6)nc4c3F)c12 (stereo not given),87.4% and 85.2% and 85.5%
7,O=C(Nc1ccc(O)c(NS(=O)(=O)c2ccc(F)cc2)c1)c1ccc(-c2ccccc2)cc1,74.3% (2×) and 75.3%
